{"source": "ChEMBL document CHEMBL5244269", "about": "“Improving metabolic stability and removing aldehyde oxidase liability in a 5-azaquinazoline series of IRAK4 inhibitors” (Bioorg Med Chem, 2020)", "key": {"OCI-Ly10": {"system": "OCI-Ly10", "assay": "Growth inhibition of human OCILY10 cells at 1.7 uM incubated for 3 days (reference value: -2%)", "format": "functional", "conditions": "OCI-Ly10, 72 h, time 3 day, read-out: GI"}, "[1]": {"molecular_target": "T1, Interleukin-1 receptor-associated kinase 4 (Homo sapiens) (UniProt Q9NWZ3)", "T1 sequence (whole entry)": "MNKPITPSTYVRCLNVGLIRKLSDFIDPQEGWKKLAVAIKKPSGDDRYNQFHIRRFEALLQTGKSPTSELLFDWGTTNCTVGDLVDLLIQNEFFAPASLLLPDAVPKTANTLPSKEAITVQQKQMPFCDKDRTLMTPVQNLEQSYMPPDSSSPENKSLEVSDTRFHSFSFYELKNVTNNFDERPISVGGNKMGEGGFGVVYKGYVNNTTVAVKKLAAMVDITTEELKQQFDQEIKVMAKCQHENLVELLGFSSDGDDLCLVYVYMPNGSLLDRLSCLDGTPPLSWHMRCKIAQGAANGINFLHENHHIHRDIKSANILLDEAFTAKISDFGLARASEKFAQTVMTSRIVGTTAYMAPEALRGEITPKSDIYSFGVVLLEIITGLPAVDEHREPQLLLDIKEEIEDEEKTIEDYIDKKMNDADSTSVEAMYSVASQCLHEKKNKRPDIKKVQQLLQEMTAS", "assay": "Inhibition of IRAK4 (unknown origin) at 0.1 uM relative to control"}, "[2]": {"assay": "Clearance in cynomolgus monkey at 1 mg/kg, iv", "format": "ADME, organism-based, Macaca fascicularis", "conditions": "in vivo"}, "[3]": {"assay": "Volume of distribution at steady state in CD1 mouse at 1 mg/kg, po or 0.5 mg/kg, iv", "format": "ADME, organism-based", "conditions": "in vivo"}, "[4]": {"assay": "Terminal half life in Han Wistar rat at 1 mg/kg, iv", "format": "ADME, organism-based", "conditions": "in vivo, read-out: beta t1/2 (converted)"}, "[5]": {"assay": "Plasma protein binding in monkey assessed as free fraction by equilibrium dialysis analysis", "format": "ADME, cell-free, Macaca mulatta", "conditions": "rhesus monkey"}, "[6]": {"assay": "Metabolic stability in rat hepatocytes assessed as intrinsic clearance measured per 10^6 cells", "format": "ADME, cell-based, Hepatocyte", "conditions": "read-out: CLH"}, "[7]": {"assay": "Terminal half life in CD1 mouse at 0.5 mg/kg, iv", "format": "ADME, organism-based", "conditions": "in vivo, read-out: beta t1/2 (converted)"}, "[8]": {"assay": "Metabolic stability in mouse hepatocytes assessed as intrinsic clearance measured per 10^6 cells", "format": "ADME, cell-based, Hepatocyte", "conditions": "read-out: CLH"}, "SUD4": {"system": "SUD4", "assay": "Growth inhibition of human SU-DHL-4 cells at 0.17 uM incubated for 3 days (reference value: 2%)", "format": "functional", "conditions": "SU-DHL-4, 72 h, time 3 day, read-out: GI"}}, "data": [{"smiles": "CC[C@@H]1[C@H](F)C(=O)N[C@@H]1COc1nccc2cc(C(N)=O)c(OC)cc12", "note": "[ZIMLOVISERTIB]", "values": [{"measurement": "inhibition of growth at 1.7 µM", "setting": "OCI-Ly10", "result": 10, "unit": "%"}]}, {"smiles": "Cc1ncc(-c2nc3c(OC4(C)CC4)nc(Nc4cnn(C5CCN(C)CC5)c4)nc3cc2F)cn1", "values": [{"measurement": "inhibition", "setting": "[1]", "result": 102, "unit": "%"}, {"measurement": "clearance", "setting": "[2]", "result": 68, "unit": "mL/min/kg"}, {"measurement": "Vdss", "setting": "[3]", "result": 4.1, "unit": "L/kg"}, {"measurement": "half-life", "setting": "[4]", "result": 5.2, "unit": "h"}, {"measurement": "fraction unbound", "setting": "[5]", "result": 0.33}, {"measurement": "hepatocyte CLint", "setting": "[6]", "result": 5.6, "unit": "µL/min/1e6 cells"}, {"measurement": "half-life", "setting": "[7]", "result": 4.2, "unit": "h"}, {"measurement": "hepatocyte CLint", "setting": "[8]", "result": 11, "unit": "µL/min/1e6 cells"}]}, {"smiles": "Cc1ncc(-c2nc3c(NC(C)C)nc(Nc4cnn(C5CC6(C5)CN(C)C6)c4)nc3cc2F)cn1", "values": [{"measurement": "inhibition of growth at 0.17 µM", "setting": "SUD4", "result": 2, "unit": "%"}]}]}
